Measured values: patent publication US12171756B2, “NLRP3 modulators” (Innate Tumor Immunity, Inc., priority 2017, dated 2024)
Read-outs that look alike come from different tables or passages of the source.

Experiments:
[1] = molecular target: T1, human TLR8 (Homo sapiens, UniProt Q9NR97); experiment: In vitro human TLR8 binding reporter assay (HEK-Blue, NF-kB/AP1-inducible SEAP); assay type: cell-based; settings: HEK-Blue human TLR8 SEAP reporter cells; activity range classes; read-out: TLR8 Agonist EC50
T1 construct: host or cells: human HEK-Blue cells (HEK293-derived) co-expressing TLR8 and an NF-kB/AP1-inducible SEAP reporter
T1 sequence (Q9NR97 27-1041): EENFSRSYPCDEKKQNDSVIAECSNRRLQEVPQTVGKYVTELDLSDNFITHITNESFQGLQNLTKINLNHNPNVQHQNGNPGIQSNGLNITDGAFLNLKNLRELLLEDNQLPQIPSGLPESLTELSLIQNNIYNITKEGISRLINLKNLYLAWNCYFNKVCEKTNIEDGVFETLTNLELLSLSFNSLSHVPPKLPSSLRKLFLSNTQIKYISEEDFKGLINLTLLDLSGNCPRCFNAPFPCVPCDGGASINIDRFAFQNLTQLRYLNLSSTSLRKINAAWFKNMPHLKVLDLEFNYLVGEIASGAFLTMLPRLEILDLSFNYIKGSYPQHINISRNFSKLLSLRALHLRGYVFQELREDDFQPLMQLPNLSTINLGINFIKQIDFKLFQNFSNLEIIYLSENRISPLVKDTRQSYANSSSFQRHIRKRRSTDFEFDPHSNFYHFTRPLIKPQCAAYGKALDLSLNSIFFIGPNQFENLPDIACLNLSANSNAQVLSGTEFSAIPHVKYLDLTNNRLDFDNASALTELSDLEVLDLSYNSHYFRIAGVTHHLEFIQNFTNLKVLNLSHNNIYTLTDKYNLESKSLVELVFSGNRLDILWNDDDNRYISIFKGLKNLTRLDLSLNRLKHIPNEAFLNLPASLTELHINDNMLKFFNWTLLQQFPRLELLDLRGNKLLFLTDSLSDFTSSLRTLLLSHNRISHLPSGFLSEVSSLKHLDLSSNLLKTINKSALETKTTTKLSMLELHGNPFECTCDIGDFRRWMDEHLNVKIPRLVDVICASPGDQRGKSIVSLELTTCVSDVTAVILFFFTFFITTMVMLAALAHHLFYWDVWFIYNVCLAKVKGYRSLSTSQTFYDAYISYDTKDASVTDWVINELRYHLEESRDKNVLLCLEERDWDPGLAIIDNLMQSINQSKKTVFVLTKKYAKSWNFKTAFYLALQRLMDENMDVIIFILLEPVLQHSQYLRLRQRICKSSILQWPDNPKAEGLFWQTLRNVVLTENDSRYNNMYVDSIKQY
Outline: (§1)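 EC50s come from NF-kB/AP1-driven SEAP secretion in HEK-Blue cells expressing TLR7 or TLR8, measured with Quanti-Blue after an 18 h compound incubation. Maximal response is defined by a 50 μM reference standard.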

[2] = test system: IL-1β production in PMA-differentiated THP-1 cells; experiment: Measurement of IL-1β production in PMA-differentiated THP-1 cells (ELISA, 4 hours); assay type: cell-based, human; settings: assayed using one or more of the described procedures, read-out: NLRP3 hIL1B IC50
Outline: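 THP-1 cells differentiated with PMA (10 μg/ml, 24 h), replated at 1×10^6 cells/ml in RPMI with 2% FBS and exposed to compounds (e.g. 0.1–100 μM, 1% DMSO final) for 4 hours. IL-1β in cell-free supernatant quantified by ELISA against vehicle control.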

[3] = molecular target: T2, human TLR7 (Homo sapiens, UniProt Q9NYK1); experiment: In vitro human TLR7 binding reporter assay (HEK-Blue, NF-kB/AP1-inducible SEAP); assay type: cell-based; settings: HEK-Blue human TLR7 SEAP reporter cells; activity range classes; read-out: TLR7 Agonist EC50
T2 construct: host or cells: human HEK-Blue cells (HEK293-derived) co-expressing TLR7 and an NF-kB/AP1-inducible SEAP reporter
T2 sequence (Q9NYK1 27-1049): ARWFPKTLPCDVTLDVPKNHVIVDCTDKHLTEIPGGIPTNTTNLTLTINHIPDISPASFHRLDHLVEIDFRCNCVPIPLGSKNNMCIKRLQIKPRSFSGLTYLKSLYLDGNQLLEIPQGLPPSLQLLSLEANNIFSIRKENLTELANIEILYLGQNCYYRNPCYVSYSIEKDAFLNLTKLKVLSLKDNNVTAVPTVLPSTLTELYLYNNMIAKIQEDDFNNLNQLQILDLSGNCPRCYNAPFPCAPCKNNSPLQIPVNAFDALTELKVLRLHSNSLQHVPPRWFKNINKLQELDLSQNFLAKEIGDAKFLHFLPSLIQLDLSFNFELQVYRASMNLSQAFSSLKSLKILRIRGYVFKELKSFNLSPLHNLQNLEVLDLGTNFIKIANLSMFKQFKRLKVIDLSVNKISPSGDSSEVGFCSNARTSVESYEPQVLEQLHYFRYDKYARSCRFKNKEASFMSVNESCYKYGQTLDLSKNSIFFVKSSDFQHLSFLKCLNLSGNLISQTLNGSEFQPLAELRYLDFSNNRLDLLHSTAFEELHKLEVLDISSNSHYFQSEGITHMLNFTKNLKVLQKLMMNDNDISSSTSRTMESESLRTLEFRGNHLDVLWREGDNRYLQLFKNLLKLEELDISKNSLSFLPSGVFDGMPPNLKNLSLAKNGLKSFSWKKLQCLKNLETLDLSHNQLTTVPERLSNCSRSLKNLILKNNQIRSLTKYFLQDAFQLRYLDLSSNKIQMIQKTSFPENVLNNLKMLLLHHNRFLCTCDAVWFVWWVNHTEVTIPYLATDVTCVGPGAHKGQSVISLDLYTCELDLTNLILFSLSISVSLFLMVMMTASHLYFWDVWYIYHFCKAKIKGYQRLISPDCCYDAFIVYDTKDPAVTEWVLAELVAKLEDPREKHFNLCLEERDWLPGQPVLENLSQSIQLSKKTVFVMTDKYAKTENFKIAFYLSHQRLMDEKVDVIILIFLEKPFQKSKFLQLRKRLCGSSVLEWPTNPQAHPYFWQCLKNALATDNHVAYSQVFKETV
Outline: as §1

[4] = Homo sapiens, THP-1, human IL-1β production

Row | Structure (SMILES) | EC50 [1] [µM] | IC50 [2, 4] [µM] | EC50 [3] [µM] | IC50 ([2]; human IL-1β production) [µM]
1 | Cc1ncsc1CCNc1cc(N)nc2cc(-c3ccn[nH]3)ccc12 [Compound 239] | > 100 | 4.83 | > 100 | –
2 | Nc1cc(NCc2ncc[nH]2)c2ccc(-c3ccn[nH]3)cc2n1 [Compound 240] | > 100 | 0.24 | > 100 | –
3 | Nc1cc(NCCCn2ccnc2)c2ccc(-c3ccn[nH]3)cc2n1 [Compound 241] | > 100 | 2.25 | > 100 | –
4 | Cn1nccc1CNc1cc(N)nc2cc(-c3ccn[nH]3)ccc12 [Compound 242] | > 100 | 2.35 | > 100 | –
5 | Cn1cnc(CNc2cc(N)nc3cc(-c4ccn[nH]4)ccc23)c1 [Compound 243] | > 100 | 1.02 | > 100 | –
6 | Nc1cc(NCc2cncs2)c2ccc(-c3ccn[nH]3)cc2n1 [Compound 244] | > 100 | 0.35 | > 100 | –
7 | Nc1cc(N[C@H]2CC[C@@H](O)C2)c2ccc(-c3ccn[nH]3)cc2n1 [Compound 245] | > 100 | 1.34 | > 100 | –
8 | Nc1cc(N[C@H]2CC[C@H](O)C2)c2ccc(-c3ccn[nH]3)cc2n1 [Compound 246] | > 100 | 0.17 | > 100 | –
9 | Nc1cc(N[C@@H]2CC[C@H](O)C2)c2ccc(-c3ccn[nH]3)cc2n1 [Compound 247] | > 100 | 0.48 | > 100 | –
10 | Nc1cc(N[C@@H]2CC[C@@H](O)C2)c2ccc(-c3ccn[nH]3)cc2n1 [Compound 248] | > 100 | 0.33 | > 100 | –
11 | Nc1cc(NCc2ncco2)c2ccc(-c3ccn[nH]3)cc2n1 [Compound 249] | > 100 | 0.05 | > 100 | –
12 | Nc1cc(N[C@H]2CCCC[C@H]2O)c2ccc(-c3ccn[nH]3)cc2n1 [Compound 250] | > 100 | – | > 100 | 1.72
13 | Nc1cc(N[C@@H]2CCCC[C@@H]2O)c2ccc(-c3ccn[nH]3)cc2n1 [Compound 251] | > 100 | 0.37 | > 100 | –
14 | Cn1cncc1CNc1cc(N)nc2cc(-c3ccn[nH]3)ccc12 [Compound 252] | > 100 | 1.69 | > 100 | –
15 | CNc1cc(N)nc2cc(-c3ccn[nH]3)ccc12 [Compound 253] | > 100 | 0.27 | > 100 | –
16 | COCC(O)CNc1cc(N)nc2cc(-c3ccn[nH]3)ccc12 (stereo not drawn) [Compound 254] | > 100 | 0.21 | > 100 | –
17 | COCCNc1cc(N)nc2cc(-c3ccn[nH]3)ccc12 [Compound 255] | > 100 | 0.27 | > 100 | –
18 | Nc1cc(NCc2ccccc2)c2ccc(-c3ccn[nH]3)cc2n1 [Compound 256] | > 100 | 0.22 | > 100 | –
19 | CS(=O)(=O)Nc1cccc(CNc2cc(N)nc3cc(-c4ccn[nH]4)ccc23)c1 [Compound 257] | > 100 | 0.68 | > 100 | –
